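Each compound was tested at five concentrations against cells in 96-well plates for 48 hours. GI50 marks 50% less growth.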 Active and inactive are the calls of the source. Cut-off read from the data, not from the text of the source: active = GI50 up to about 1.1 µM and inactive = higher.
Key:
Test in all cases: NCI-60 cell line screen, 48 h
[1] = test system: HCC 2998
[2] = test system: OVCAR-5
[3] = test system: Hs-578T
[4] = test system: NCI/ADR-RES
[5] = test system: NCI-H226
[6] = test system: SK-OV-3
[7] = test system: UACC-257
[8] = test system: SR
[9] = test system: HT-29
[10] = test system: COLO 205
[11] = test system: BT-549
[12] = test system: T47D
[13] = test system: Malme-3M
[14] = test system: SNB-75
[15] = test system: 786-0
[16] = test system: M14
[17] = test system: NCI-H23
[18] = test system: HOP-62
[19] = test system: SF-539
[20] = test system: SNB-19
[21] = test system: MDA-N
[22] = test system: HCT-116
[23] = test system: SK-MEL-2
[24] = test system: SK-MEL-28
[25] = test system: TK-10
[26] = test system: LOX IMVI
[27] = test system: MOLT-4
[28] = test system: OVCAR-8
[29] = test system: HL-60
[30] = test system: K562
[31] = test system: OVCAR-3
[32] = test system: UACC-62
[33] = test system: ACHN
[34] = test system: RPMI-8226
[35] = test system: HCT-15
[36] = test system: KM12
[37] = test system: MCF7
[38] = test system: UO-31
[39] = test system: RXF 393
[40] = test system: NCI-H460
[41] = test system: PC-3
[42] = test system: SW-620
[43] = test system: IGROV-1
[44] = test system: DU-145
[45] = test system: A498
[46] = test system: OVCAR-4
[47] = test system: SK-MEL-5
[48] = test system: SN12C
[49] = test system: MDA-MB-231
[50] = test system: A549
[51] = test system: CCRF-CEM
[52] = test system: NCI-H522
[53] = test system: EKVX
[54] = test system: HOP-92
[55] = test system: SF-268
[56] = test system: SF-295
[57] = test system: U-251
[58] = test system: CAKI-1
[59] = test system: MDA-MB-435

COc1cc(OC)c(/C=C\c2cc(/C=C/c3c(OC)cc(OC)cc3OC)c3ccccc3[n+]2C)c(OC)c1
GI50 [1]: 3480 nM (inactive) | GI50 [2]: 13200 nM (inactive) | GI50 [3]: 863 nM (active) | GI50 [4]: > 100000 nM (inactive) | GI50 [5]: 5960 nM (inactive) | GI50 [6]: 4690 nM (inactive) | GI50 [7]: 2920 nM (inactive) | GI50 [8]: 2240 nM (inactive) | GI50 [9]: 1830 nM (inactive) | GI50 [10]: 1670 nM (inactive) | GI50 [11]: 4100 nM (inactive) | GI50 [12]: 2370 nM (inactive) | GI50 [13]: 1960 nM (inactive) | GI50 [14]: 2770 nM (inactive) | GI50 [15]: 2200 nM (inactive) | GI50 [16]: 2560 nM (inactive) | GI50 [17]: 2760 nM (inactive) | GI50 [18]: 1070 nM (active) | GI50 [19]: 2220 nM (inactive) | GI50 [20]: 8470 nM (inactive) | GI50 [21]: 2650 nM (inactive) | GI50 [22]: 2470 nM (inactive) | GI50 [23]: 1740 nM (inactive) | GI50 [24]: 3390 nM (inactive) | GI50 [25]: 16000 nM (inactive) | GI50 [26]: 4070 nM (inactive) | GI50 [27]: 1980 nM (inactive) | GI50 [28]: 1940 nM (inactive) | GI50 [29]: 2000 nM (inactive) | GI50 [30]: 1640 nM (inactive) | GI50 [31]: 2330 nM (inactive) | GI50 [32]: 2820 nM (inactive) | GI50 [33]: 4590 nM (inactive) | GI50 [34]: 2000 nM (inactive) | GI50 [35]: 719 nM | GI50 [36]: 2980 nM (inactive) | GI50 [37]: 2860 nM (inactive) | GI50 [38]: 7160 nM (inactive) | GI50 [39]: 3410 nM (inactive) | GI50 [40]: 2210 nM (inactive) | GI50 [41]: 2600 nM (inactive) | GI50 [42]: 2390 nM (inactive) | GI50 [43]: 3240 nM (inactive) | GI50 [44]: 5940 nM (inactive) | GI50 [45]: 4590 nM (inactive) | GI50 [46]: 8390 nM (inactive) | GI50 [47]: 1310 nM (inactive) | GI50 [48]: 2180 nM (inactive) | GI50 [49]: 4030 nM (inactive) | GI50 [50]: 3940 nM (inactive) | GI50 [51]: 1380 nM (inactive) | GI50 [52]: 1960 nM (inactive) | GI50 [53]: 2990 nM (inactive) | GI50 [54]: 2950 nM (inactive) | GI50 [55]: 2520 nM (inactive) | GI50 [56]: 2310 nM (inactive) | GI50 [57]: 1280 nM (inactive) | GI50 [58]: 6610 nM (inactive) | GI50 [59]: 2480 nM (inactive)

CC(C)C1OC(=O)C(Cc2ccccc2)N(C)C(=O)C(C(C)C)OC(=O)C(Cc2ccccc2)N(C)C(=O)C(C(C)C)OC(=O)C(Cc2ccccc2)N(C)C1=O (stereo not drawn)
GI50 [1]: 762 nM (active) | GI50 [2]: 1030 nM (active) | GI50 [3]: 1180 nM (inactive) | GI50 [4]: 771 nM (active) | GI50 [5]: 1360 nM (inactive) | GI50 [6]: 836 nM (active) | GI50 [7]: 748 nM (active) | GI50 [8]: 1890 nM (inactive) | GI50 [9]: 783 nM (active) | GI50 [10]: 682 nM (active) | GI50 [11]: 1390 nM (inactive) | GI50 [12]: 1050 nM (active) | GI50 [13]: 359 nM (active) | GI50 [14]: 1630 nM (inactive) | GI50 [15]: 1170 nM (inactive) | GI50 [16]: 713 nM (active) | GI50 [17]: 1030 nM (active) | GI50 [18]: 838 nM (active) | GI50 [19]: 1030 nM (active) | GI50 [20]: 805 nM (active) | GI50 [21]: 815 nM (active) | GI50 [22]: 989 nM (active) | GI50 [23]: 628 nM (active) | GI50 [24]: 780 nM (active) | GI50 [25]: 757 nM (active) | GI50 [26]: 802 nM (active) | GI50 [27]: 508 nM (active) | GI50 [28]: 723 nM (active) | GI50 [29]: 498 nM (active) | GI50 [30]: 838 nM (active) | GI50 [31]: 598 nM (active) | GI50 [32]: 643 nM (active) | GI50 [33]: 603 nM (active) | GI50 [34]: 489 nM (active) | GI50 [35]: 891 nM | GI50 [36]: 501 nM (active) | GI50 [37]: 647 nM (active) | GI50 [38]: 307 nM (active) | GI50 [39]: 887 nM (active) | GI50 [40]: 865 nM (active) | GI50 [41]: 687 nM (active) | GI50 [42]: 685 nM (active) | GI50 [43]: 1030 nM (active) | GI50 [44]: 1620 nM (inactive) | GI50 [45]: 2360 nM (inactive) | GI50 [46]: 463 nM (active) | GI50 [47]: 530 nM (active) | GI50 [48]: 804 nM (active) | GI50 [49]: 1370 nM (inactive) | GI50 [50]: 618 nM (active) | GI50 [51]: 373 nM (active) | GI50 [52]: 689 nM (active) | GI50 [53]: 984 nM (active) | GI50 [54]: 528 nM (active) | GI50 [55]: 1400 nM (inactive) | GI50 [56]: 662 nM (active) | GI50 [57]: 661 nM (active) | GI50 [58]: 979 nM (active) | GI50 [59]: 641 nM (active)

Reference: ChEMBL document CHEMBL1201862, “PubChem BioAssay data set” (2004)
